Here are results for 25 molecules from patent publication US20160046597A1, “RORC2 INHIBITORS AND METHODS OF USE THEREOF” (PFIZER INC., priority 2013, published 2016).

The IC50 is the concentration at which inhibition is half-maximal. Higher therefore signals lower potency.

For this experiment, the target named is T1, RORC2 ligand binding domain (6-His-RORC2 LBD) (Homo sapiens, UniProt P51449).
T1 construct: made in house; host or cells: E. coli
T1 sequence (P51449 269-508 limits assumed): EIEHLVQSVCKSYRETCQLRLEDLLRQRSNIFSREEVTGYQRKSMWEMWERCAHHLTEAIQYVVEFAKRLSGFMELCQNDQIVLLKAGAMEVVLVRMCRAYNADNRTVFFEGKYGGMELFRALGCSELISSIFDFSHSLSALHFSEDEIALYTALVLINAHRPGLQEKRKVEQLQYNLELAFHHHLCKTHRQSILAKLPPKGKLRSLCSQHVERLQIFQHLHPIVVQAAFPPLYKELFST
In words: Co-activator recruitment by TR-FRET (RORC2 FRET). The format is biochemical. To be noted: 6.3 nM RORC2 LBD, 200 nM SRC1-2 coactivator peptide, 3 hours room temperature. An excerpt: The activity of compound of the invention can be determined by a co-activator recruitment by TR-FRET (time-resolved fluorescence resonance energy transfer) assay. […] Due to the long lasting fluorescence emission of Europium, the non-specific, short-lived fluorescence is time-resolved (TR) from the fluorescence of interest. Inhibitors of the interaction of receptor and coactivator peptide are detected by a decrease in TR-FRET signal.
Specifically, in one embodiment the aforementioned assay was performed as outlined below. The assay was carried out in black polystyrene, 384-well plates in a total assay volume of 50.5 μL. The assay buffer contained 50 mM TRIS-HCL pH 7.5, 1 mM NaCl, 2 mM MgCl2, 0.5 mg/mL bovine serum albumin, and 5 mM dithiothreitol.
Molecule `CC(C)C(O)C(=O)N1CCC(c2cn(C)c3ccc(NC(=O)c4cc(C#N)ccn4)cc23)CC1` (stereo not shown) [Example 28, 4-cyano-N-{3-[1-(2-hydroxy-3-methylbutanoyl)piperidin-4-yl]-1-methyl-1H-indol-5-yl}pyridine-2-carboxamide] came in with an IC50 of 0.0881 µM.
The figure for `CCCS(=O)(=O)Nc1ccc2c(c1)c(C1CCN(C(=O)C3CCCC3)CC1)cn2C` [Example 73, N-{3-[1-(cyclopentylcarbonyl)piperidin-4-yl]-1-methyl-1H-indol-5-yl}propane-1-sulfonamide] is 0.0677 µM; for `Cn1cc(C2CCN(C(=O)[C@H]3CC[C@H](O)CC3)CC2)c2cc(NC(=O)c3cc(C#N)ccn3)ccc21` [Example 27, 4-cyano-N-(3-{1-[(trans-4-hydroxycyclohexyl)carbonyl]piperidin-4-yl}-1-methyl-1H-indol-5-yl)pyridine-2-carboxamide] it is 1.42 µM; for `Cn1cc(C2CCN(C(=O)C3CCCO3)CC2)c2cc(NC(=O)c3cc(C#N)ccn3)ccc21` (stereo not shown) [Example 25, 4-cyano-N-{1-methyl-3-[1-(tetrahydrofuran-2-ylcarbonyl)piperidin-4-yl]-1H-indol-5-yl}pyridine-2-carboxamide] it is 0.0316 µM.
As for `COc1ccc(S(=O)(=O)Nc2ccc3c(c2)c(C2CCN(C(=O)C4CCCC4)CC2)cn3C)cc1` [Example 75], the IC50 was determined as 0.0147 µM.
The figure for `Cn1cc(C2CCN(C(=O)C3CC3(F)F)CC2)c2cc(NC(=O)c3cc(C#N)ccn3)ccc21` (stereo not shown) [Example 32, 4-cyano-N-(3-{1-[(2,2-difluorocyclopropyl)carbonyl]piperidin-4-yl}-1-methyl-1H-indol-5-yl)pyridine-2-carboxamide] is 0.0355 µM; for `Cn1cc(C2CCN(C(=O)C3CCCC3)CC2)c2cc(NS(=O)(=O)c3cccnc3)ccc21` [Example 76, N-{3-[1-(cyclopentylcarbonyl)piperidin-4-yl]-1-methyl-1H-indol-5-yl}pyridine-3-sulfonamide] it is 0.0229 µM; for `Cc1c(NC(=O)c2cccc(C#N)c2)cnc2c1c(C1CCN(C(=O)C[C@@H](O)C(F)(F)F)CC1)cn2C` [Example 95, (R)-3-Cyano-N-(1,4-dimethyl-3-(1-(4,4,4-trifluoro-3-hydroxybutanoyl)piperidin-4-yl)-1H-pyrrolo[2,3-b]pyridin-5-yl)benzamide] it is 0.0468 µM.
In turn, `CC(C)C[C@H](O)C(=O)N1CCC(c2cn(C)c3ccc(NC(=O)c4cccc(C#N)c4)cc23)CC1` [Example 4, 3-cyano-N-(3-(1-((2S)-2-hydroxy-4-methylpentanoyl)piperidin-4-yl)-1-methyl-1H-indol-5-yl)benzamide] displayed an IC50 of 0.59 µM.
The figure for `Cn1cc(C2CCN(C(=O)c3cscn3)CC2)c2cc(NC(=O)c3cc(C#N)ccn3)ccc21` [Example 18, 4-cyano-N-{1-methyl-3-[1-(1,3-thiazol-4-ylcarbonyl)piperidin-4-yl]-1H-indol-5-yl}pyridine-2-carboxamide] is 0.0261 µM; for `Cn1cc(C2CCN(C(=O)C3CCCC3)CC2)c2cc(NS(=O)(=O)C3CC3)ccc21` [Example 72, N-{3-[1-(cyclopentylcarbonyl)piperidin-4-yl]-1-methyl-1H-indol-5-yl}cyclopropanesulfonamide] it is 0.128 µM.
Under `Cn1cc(C2CCN(C(=O)CCC(F)(F)F)CC2)c2cc(NC(=O)c3cc(C#N)ccn3)ccc21` [Example 30, 4-cyano-N-{1-methyl-3-[1-(4,4,4-trifluorobutanoyl)piperidin-4-yl]-1H-indol-5-yl}pyridine-2-carboxamide] stands 0.0143 µM; under `O=C(Nc1ccc2[nH]cc(C3CCN(C(=O)C4CCCC4)CC3)c2c1)c1cccc(O)c1` [Example 46, N-{3-[1-(cyclopentylcarbonyl)piperidin-4-yl]-1H-indol-5-yl}-3-hydroxybenzamide], 1.45 µM.
On to `Cn1cc(C2CCN(C(=O)C3CCCC3)CC2)c2cc(NS(=O)(=O)c3cnc(N)nc3)ccc21` [Example 65, 2-amino-N-{3-[1-(cyclopentylcarbonyl)piperidin-4-yl]-1-methyl-1H-indol-5-yl}pyrimidine-5-sulfonamide], for which the IC50 came to 0.0373 µM.
The figure for `Cn1cc(C2CCN(C(=O)C3CCCC3)CC2)c2cc(NC(=O)N3CC(C#N)C3)ccc21` [Example 63, 3-cyano-N-{3-[1-(cyclopentylcarbonyl)piperidin-4-yl]-1-methyl-1H-indol-5-yl}azetidine-1-carboxamide] is 0.193 µM; for `COc1ccc(C(=O)Nc2ccc3[nH]cc(C4CCN(C(=O)C5CCCC5)CC4)c3c2)nc1` [Example 42, N-{3-[1-(cyclopentylcarbonyl)piperidin-4-yl]-1H-indol-5-yl}-5-methoxypyridine-2-carboxamide] it is 0.953 µM.
Under `O=C(Nc1ccc2[nH]cc(C3CCN(C(=O)C4CCCC4)CC3)c2c1)c1cccc2ncsc12` [Example 49, N-{3-[1-(cyclopentylcarbonyl)piperidin-4-yl]-1H-indol-5-yl}-1,3-benzothiazole-7-carboxamide] stands 1.38 µM; under `Cn1cc(C2CCN(C(=O)[C@H]3CC[C@@H](O)CC3)CC2)c2cc(NC(=O)c3cccc(C#N)c3)ccc21` [Example 5, 3-cyano-N-(3-{1-[(cis-4-hydroxycyclohexyl)carbonyl]piperidin-4-yl}-1-methyl-1H-indol-5-yl)benzamide], 0.106 µM; under `CC(C)c1cnc(N2CCC(c3cn(C)c4ccc(NC(=O)c5cccc(C#N)c5)cc34)CC2)nc1` [Example 80], 0.259 µM.
`Cn1cc(C2CCN(C(=O)C3CC(F)(F)C3)CC2)c2cc(NC(=O)c3cc(C#N)ccn3)ccc21` [Example 9, 4-cyano-N-(3-{1-[(3,3-difluorocyclobutyl)carbonyl]piperidin-4-yl}-1-methyl-1H-indol-5-yl)pyridine-2-carboxamide] displayed a 50% inhibitory concentration (IC50) of 0.0087 µM. This IC50 is about 30-fold lower than that of the molecule before.
Under `Cn1nccc1C(=O)N1CCC(c2cn(C)c3ccc(NC(=O)c4cc(C#N)ccn4)cc23)CC1` [Example 11, 4-cyano-N-(1-methyl-3-{1-[(1-methyl-1H-pyrazol-5-yl)carbonyl]piperidin-4-yl}-1H-indol-5-yl)pyridine-2-carboxamide] stands 0.0346 µM.
Under `N#Cc1cccc(C(=O)Nc2ccc3[nH]cc(C4CCN(C(=O)NC5CCCC5)CC4)c3c2)c1` [Example 85, 4-(5-(3-cyanobenzamido)-1H-indol-3-yl)-N-cyclopentylpiperidine-1-carboxamide] stands 0.859 µM; under `COCC(=O)N1CCC(c2cn(C)c3ccc(NC(=O)c4cc(C#N)ccn4)cc23)CC1` [Example 34, 4-cyano-N-{3-[1-(methoxyacetyl)piperidin-4-yl]-1-methyl-1H-indol-5-yl}pyridine-2-carboxamide], 0.1 µM; under `Cn1cc(C2CCN(C(=O)C3CCCC3)CC2)c2cc(NS(=O)(=O)C3CCCCC3)ccc21` [Example 70, N-{3-[1-(cyclopentylcarbonyl)piperidin-4-yl]-1-methyl-1H-indol-5-yl}cyclohexanesulfonamide], 0.0072 µM.
The figure for `Cn1cc(C2CCN(C(=O)C3CCCC3)CC2)c2cc(NC(=O)N3CCOC(C#N)C3)ccc21` (stereo not shown) [Example 62, 2-cyano-N-{3-[1-(cyclopentylcarbonyl)piperidin-4-yl]-1-methyl-1H-indol-5-yl}morpholine-4-carboxamide] is 0.425 µM.
